Experimental data as given in paper PMC10794144, “A novel antibiotic class targeting the lipopolysaccharide transporter” (Nature, 2024).
Read-outs that look alike come from different tables or passages of the source.

Tested on: A. baumannii
Experiment: microbe, parasite or virus in culture
In short: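 CLSI broth microdilution (M07/M100); inoculum from 0.5 McFarland suspension diluted in CAMHB; MIC = lowest concentration with no visible growth or where OD600 stops falling.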

CN1C(=O)[C@H](CCCCN)NC(=O)[C@H](CCCN)NCc2cccnc2Sc2c(Cl)ccc(Cl)c2CNC(=O)[C@@H]1Cc1c[nH]c2ccccc12 [RO7075573]
>64 µg/mL: MIC 100% (ROB08702, Study LGC281440) | MIC 100% (ROB08702, Study LGC282160) | MIC 100% (ROB08702, Study LGC284879) | MIC 100% (ROB08702, Study LGC285582) | MIC 100% (ROB08702, Study LGC286210) | MIC 100% (ROB08702, Study LGC293598) | MIC 100% (ROB08702, Study LGC294355) | MIC 100% (ROB08703, Study LGC284879) | MIC 100% (ROB08703, Study LGC293598) | MIC 80% (ROB08703, Study LGC294355) | MIC 100% (ROB08703, Study LGC294355) | MIC 100% (ROB08704, Study LGC284879) | MIC 100% (ROB08704, Study LGC293598) | MIC 100% (ROB08704, Study LGC294355)
≤ 0.06 µg/mL: MIC (Acinetobacter baumannii, ATCC17978, ATCC 17978, CAMHB, one replicate, MCPs read at 80% growth inhibition) | MIC (Acinetobacter baumannii, ROB08705, CAMHB, MCPs read at 80% inhibition)
0.12 µg/mL: MIC 80% (ATCC 17978, Study LGC301026) | MIC 100% (ATCC 17978, Study LGC301026) | MIC 80% (ATCC 19606, Study LGC281440) | MIC 100% (ATCC 19606, Study LGC281440) | MIC 80% (ATCC 19606, Study LGC285582) | MIC 80% (ATCC 19606, Study LGC286210) | MIC 100% (ATCC 19606, Study LGC286210) | MIC 80% (ATCC 19606, Study LGC293598) | MIC 80% (ATCC 19606, Study LGC294355) | MIC 100% (ATCC 19606, Study LGC294355) | MIC 80% (ATCC 19606, Study LGC296813) | MIC 80% (ATCC 19606, Study LGC299544) | MIC 100% (ATCC 19606, Study LGC299544) | MIC 80% (ATCC 19606, Study LGC301026) | MIC 80% (ATCC 19606, Study LGC308175) | MIC 100% (ATCC 19606, Study LGC308175) | MIC 80% (ATCC 19606, Study ROC012) | MIC (Acinetobacter baumannii, ATCC17978, ATCC 17978, CAMHB, MCPs read at 80% inhibition) | MIC (Acinetobacter baumannii, ATCC19606, ATCC 19606, CAMHB, MCPs read at 80% growth inhibition) | MIC (Acinetobacter baumannii, ATCC19606, ATCC 19606, CAMHB, MCPs read at 80% inhibition) | MIC (Acinetobacter baumannii, ROB08701, CAMHB, MCPs read at 80% inhibition) | MIC (Acinetobacter baumannii, ROB08702, CAMHB, MCPs read at 80% inhibition) | MIC (Acinetobacter baumannii, ROB08707, CAMHB, MCPs read at 80% inhibition) | MIC (Acinetobacter baumannii, ROB08708, CAMHB, MCPs read at 80% inhibition) | MIC (Acinetobacter baumannii, ROB08709, CAMHB, MCPs read at 80% inhibition) | MIC (Acinetobacter baumannii, ROB08710, CAMHB, MCPs read at 80% inhibition) | MIC 80% (ROB08701, Study LGC281440) | MIC 80% (ROB08701, Study LGC282160) | MIC 80% (ROB08701, Study LGC285582) | MIC 80% (ROB08701, Study LGC286210) | MIC 80% (ROB08701, Study LGC293598) | MIC 80% (ROB08701, Study LGC294355) | MIC 80% (ROB08701, Study LGC295147) | MIC 100% (ROB08701, Study LGC295147) | MIC 80% (ROB08701, Study LGC296813) | MIC 80% (ROB08701, Study LGC299544) | MIC 80% (ROB08701, Study LGC308175) | MIC 80% (ROB08701, Study ROC012) | MIC 80% (ROB08702, Study LGC281440) | MIC 80% (ROB08702, Study LGC284879) | MIC 80% (ROB08702, Study LGC285582) | MIC 80% (ROB08702, Study LGC286210) | MIC 80% (ROB08702, Study LGC293598) | MIC 80% (ROB08702, Study LGC294355) | MIC 80% (ROB08702, Study LGC295147) | MIC 80% (ROB08702, Study LGC296813) | MIC 80% (ROB08702, Study LGC299544) | MIC 80% (ROB08702, Study LGC301026) | MIC 80% (ROB08702, Study LGC308175) | MIC 80% (ROB08702, Study ROC012) | MIC 80% (ROB08703, Study LGC293598) | MIC 80% (ROB08705, Study LGC282160) | MIC 100% (ROB08705, Study LGC284879)
32 µg/mL: MIC 100% (ROB08702, Study ROC010) | MIC 100% (ROB08704, Study LGC286210) | MIC 100% (ROB08704, Study LGC296813) | MIC 100% (ROB08704, Study LGC308175) | MIC 100% (ROB08704, Study ROC012) | MIC 100% (ROB08705, Study LGC282160)
> 64 µg/mL: MIC (Acinetobacter baumannii, read-out: MIC read at 100% growth inhibition, CAMHB)
0.5 µg/mL: MIC 100% (ATCC 19606, Study ROC010) | MIC90 (Acinetobacter baumannii, 10 MDR isolates, CAMHB, MCPs read at 80% growth inhibition) | MIC (Acinetobacter baumannii, ROB08704, CAMHB, MCPs read at 80% inhibition) | MIC (Acinetobacter baumannii, ROB08706, CAMHB, MCPs read at 80% inhibition) | MIC 100% (ROB08701, Study LGC284879) | MIC 80% (ROB08701, Study LGC301026) | MIC 100% (ROB08701, Study ROC010) | MIC 80% (ROB08703, Study LGC284879) | MIC 80% (ROB08703, Study LGC296813) | MIC 80% (ROB08703, Study LGC299544) | MIC 80% (ROB08703, Study ROC010) | MIC 100% (ROB08703, Study ROC010) | MIC 80% (ROB08704, Study LGC281440) | MIC 80% (ROB08704, Study LGC284879) | MIC 80% (ROB08704, Study LGC286210) | MIC 80% (ROB08704, Study LGC293598) | MIC 80% (ROB08704, Study LGC294355) | MIC 80% (ROB08704, Study LGC295147) | MIC 80% (ROB08704, Study LGC296813) | MIC 80% (ROB08704, Study LGC299544) | MIC 80% (ROB08704, Study LGC301026) | MIC 80% (ROB08704, Study ROC010)
2 µg/mL: MIC (Acinetobacter baumannii, read-out: MIC read at 80% growth inhibition, CAMHB) | MIC 80% (ROB08702, Study LGC282160)
64 µg/mL: MIC 100% (ROB08701, Study LGC285582) | MIC 100% (ROB08701, Study LGC286210) | MIC 100% (ROB08701, Study LGC299544) | MIC 100% (ROB08701, Study LGC301026) | MIC 100% (ROB08701, Study LGC308175) | MIC 100% (ROB08702, Study LGC295147) | MIC 100% (ROB08702, Study LGC296813) | MIC 100% (ROB08702, Study LGC299544) | MIC 100% (ROB08702, Study LGC301026) | MIC 100% (ROB08702, Study LGC308175) | MIC 100% (ROB08702, Study ROC012) | MIC 100% (ROB08703, Study LGC282160) | MIC 100% (ROB08703, Study LGC285582) | MIC 100% (ROB08703, Study LGC286210) | MIC 100% (ROB08703, Study LGC295147) | MIC 100% (ROB08703, Study LGC296813) | MIC 100% (ROB08703, Study LGC299544) | MIC 100% (ROB08703, Study LGC301026) | MIC 100% (ROB08703, Study LGC308175) | MIC 100% (ROB08703, Study ROC012) | MIC 100% (ROB08704, Study LGC282160) | MIC 100% (ROB08704, Study LGC285582) | MIC 100% (ROB08704, Study LGC295147) | MIC 100% (ROB08704, Study LGC299544) | MIC 100% (ROB08704, Study LGC301026)
8 µg/mL: MIC 100% (ROB08701, Study ROC012)
1 µg/mL: MIC 100% (ROB08701, Study LGC282160) | MIC 100% (ROB08704, Study ROC010)
0.25 µg/mL: MIC 80% (ATCC 19606, Study LGC282160) | MIC 100% (ATCC 19606, Study LGC282160) | MIC 80% (ATCC 19606, Study LGC284879) | MIC 100% (ATCC 19606, Study LGC284879) | MIC 100% (ATCC 19606, Study LGC285582) | MIC 100% (ATCC 19606, Study LGC293598) | MIC 80% (ATCC 19606, Study LGC295147) | MIC 100% (ATCC 19606, Study LGC295147) | MIC 100% (ATCC 19606, Study LGC296813) | MIC 100% (ATCC 19606, Study LGC301026) | MIC 80% (ATCC 19606, Study ROC010) | MIC 100% (ATCC 19606, Study ROC012) | MIC (Acinetobacter baumannii, ROB08703, CAMHB, MCPs read at 80% inhibition) | MIC 100% (ROB08701, Study LGC281440) | MIC 80% (ROB08701, Study LGC284879) | MIC 100% (ROB08701, Study LGC293598) | MIC 100% (ROB08701, Study LGC294355) | MIC 100% (ROB08701, Study LGC296813) | MIC 80% (ROB08701, Study ROC010) | MIC 80% (ROB08702, Study ROC010) | MIC 80% (ROB08703, Study LGC281440) | MIC 80% (ROB08703, Study LGC282160) | MIC 80% (ROB08703, Study LGC285582) | MIC 80% (ROB08703, Study LGC286210) | MIC 80% (ROB08703, Study LGC295147) | MIC 80% (ROB08703, Study LGC301026) | MIC 80% (ROB08703, Study LGC308175) | MIC 80% (ROB08703, Study ROC012) | MIC 80% (ROB08704, Study LGC282160) | MIC 80% (ROB08704, Study LGC285582) | MIC 80% (ROB08704, Study LGC308175) | MIC 80% (ROB08704, Study ROC012)
16 µg/mL: MIC 100% (ROB08703, Study LGC281440) | MIC 100% (ROB08704, Study LGC281440)
≤0.06 µg/mL: MIC 80% (ATCC 17978, Study LGC308175) | MIC 100% (ATCC 17978, Study LGC308175) | MIC 80% (ROB08705, Study LGC281440) | MIC 100% (ROB08705, Study LGC281440) | MIC 80% (ROB08705, Study LGC284879)
